ChEMBL document CHEMBL1152560, “Substituted 2-arylbenzothiazoles as kinase inhibitors: hit-to-lead optimization” (Bioorg Med Chem, 2009)

Columns and labels:
[1] = biological target: Fibroblast growth factor receptor 4 (Homo sapiens) (UniProt P22455); assay: Residual activity of FGFR4 at 1 uM by microplate scintillation counting
[2] = biological target: Tyrosine-protein kinase Fgr (Homo sapiens) (UniProt P09769); assay: Residual activity of FGR at 1 uM by microplate scintillation counting
[3] = biological target: Mitogen-activated protein kinase 1 (Homo sapiens) (UniProt P28482); assay: Residual activity of ERK2 at 0.1 uM by microplate scintillation counting
Chain of Mitogen-activated protein kinase 1 (Homo sapiens) (P28482 whole entry): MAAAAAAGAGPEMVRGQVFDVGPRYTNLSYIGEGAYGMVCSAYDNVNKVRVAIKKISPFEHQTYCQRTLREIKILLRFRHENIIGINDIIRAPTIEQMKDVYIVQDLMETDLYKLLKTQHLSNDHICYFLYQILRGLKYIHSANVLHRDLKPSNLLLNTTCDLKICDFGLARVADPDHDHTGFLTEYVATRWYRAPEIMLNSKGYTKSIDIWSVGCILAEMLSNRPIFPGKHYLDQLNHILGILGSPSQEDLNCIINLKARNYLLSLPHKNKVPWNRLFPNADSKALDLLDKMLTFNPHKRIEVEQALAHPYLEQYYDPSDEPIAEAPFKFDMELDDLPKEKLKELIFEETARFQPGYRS

[4] = test system: T1, Receptor-type tyrosine-protein kinase FLT3 (Homo sapiens), P36888 [D835Y]; assay: Residual activity of FLT3 D835Y mutant at 0.1 uM by microplate scintillation counting
T1 sequence (whole entry): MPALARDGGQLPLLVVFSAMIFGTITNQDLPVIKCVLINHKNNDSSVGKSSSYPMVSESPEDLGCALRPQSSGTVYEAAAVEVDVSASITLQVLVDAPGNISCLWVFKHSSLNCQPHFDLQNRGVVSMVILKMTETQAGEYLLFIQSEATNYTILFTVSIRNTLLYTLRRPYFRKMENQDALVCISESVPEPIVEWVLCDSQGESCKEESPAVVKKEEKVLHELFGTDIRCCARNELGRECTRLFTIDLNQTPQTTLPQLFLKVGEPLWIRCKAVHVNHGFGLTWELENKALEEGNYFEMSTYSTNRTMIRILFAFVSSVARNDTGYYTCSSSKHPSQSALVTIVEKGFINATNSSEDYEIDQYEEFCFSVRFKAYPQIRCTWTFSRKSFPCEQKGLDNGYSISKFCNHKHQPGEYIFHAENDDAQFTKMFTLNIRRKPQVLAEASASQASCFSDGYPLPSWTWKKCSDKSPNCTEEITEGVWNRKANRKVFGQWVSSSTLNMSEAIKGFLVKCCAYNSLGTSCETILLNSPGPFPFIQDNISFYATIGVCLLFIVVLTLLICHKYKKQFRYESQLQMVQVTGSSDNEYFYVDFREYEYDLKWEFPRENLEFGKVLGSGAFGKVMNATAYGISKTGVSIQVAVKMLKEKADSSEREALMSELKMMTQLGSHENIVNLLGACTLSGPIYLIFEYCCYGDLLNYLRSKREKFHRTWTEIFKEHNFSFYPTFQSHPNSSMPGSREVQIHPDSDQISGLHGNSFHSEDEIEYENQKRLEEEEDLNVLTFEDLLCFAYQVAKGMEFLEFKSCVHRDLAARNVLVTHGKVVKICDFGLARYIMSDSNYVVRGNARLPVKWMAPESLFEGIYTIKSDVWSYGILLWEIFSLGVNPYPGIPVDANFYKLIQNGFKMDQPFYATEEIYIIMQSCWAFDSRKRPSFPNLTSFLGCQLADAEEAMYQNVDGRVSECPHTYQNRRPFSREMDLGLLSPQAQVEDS

[5] = biological target: MAP/microtubule affinity-regulating kinase 3 (Homo sapiens) (UniProt P27448); assay: Residual activity of MARK3 at 0.1 uM by microplate scintillation counting
[6] = biological target: T2, Serine/threonine-protein kinase 4 (Homo sapiens) (UniProt Q13043); assay: Residual activity of MST1 at 1 uM by microplate scintillation counting
T2 sequence (whole entry): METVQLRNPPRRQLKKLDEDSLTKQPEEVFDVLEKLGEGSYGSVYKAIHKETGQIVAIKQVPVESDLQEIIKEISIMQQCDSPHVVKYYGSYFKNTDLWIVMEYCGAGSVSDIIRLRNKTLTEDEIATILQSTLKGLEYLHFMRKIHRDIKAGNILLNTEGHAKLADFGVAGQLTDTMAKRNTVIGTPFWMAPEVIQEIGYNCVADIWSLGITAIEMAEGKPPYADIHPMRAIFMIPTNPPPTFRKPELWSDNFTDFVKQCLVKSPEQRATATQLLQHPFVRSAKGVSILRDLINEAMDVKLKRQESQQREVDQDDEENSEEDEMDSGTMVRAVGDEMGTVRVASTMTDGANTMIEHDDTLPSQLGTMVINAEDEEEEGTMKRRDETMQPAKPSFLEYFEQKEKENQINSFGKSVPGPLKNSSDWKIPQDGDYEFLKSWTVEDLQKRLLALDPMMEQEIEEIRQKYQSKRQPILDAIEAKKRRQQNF

[7] = biological target: Ribosomal protein S6 kinase beta-2 (Homo sapiens) (UniProt Q9UBS0); assay: Residual activity of S6Kbeta at 1 uM by microplate scintillation counting
Chain of Ribosomal protein S6 kinase beta-2 (Homo sapiens) (Q9UBS0 whole entry): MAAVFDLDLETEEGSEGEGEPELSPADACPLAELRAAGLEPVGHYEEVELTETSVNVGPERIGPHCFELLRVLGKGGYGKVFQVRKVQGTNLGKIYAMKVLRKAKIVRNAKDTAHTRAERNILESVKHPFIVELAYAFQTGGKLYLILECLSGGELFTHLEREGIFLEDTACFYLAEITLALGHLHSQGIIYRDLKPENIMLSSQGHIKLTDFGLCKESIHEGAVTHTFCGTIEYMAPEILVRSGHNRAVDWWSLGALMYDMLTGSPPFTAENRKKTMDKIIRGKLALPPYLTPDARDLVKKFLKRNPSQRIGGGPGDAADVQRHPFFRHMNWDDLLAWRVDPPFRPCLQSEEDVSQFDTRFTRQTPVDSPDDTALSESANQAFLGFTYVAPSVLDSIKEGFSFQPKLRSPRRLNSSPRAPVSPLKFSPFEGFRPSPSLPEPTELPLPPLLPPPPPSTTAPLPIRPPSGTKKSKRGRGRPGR

[8] = biological target: Serine/threonine-protein kinase PLK2 (Homo sapiens) (UniProt Q9NYY3); assay: Residual activity of SNK at 1 uM by microplate scintillation counting
[9] = biological target: Fibroblast growth factor receptor 3 (Homo sapiens) (UniProt P22607); assay: Residual activity of FGFR3 at 10 uM by microplate scintillation counting
Chain of Fibroblast growth factor receptor 3 (Homo sapiens) (P22607 23-806 limits assumed): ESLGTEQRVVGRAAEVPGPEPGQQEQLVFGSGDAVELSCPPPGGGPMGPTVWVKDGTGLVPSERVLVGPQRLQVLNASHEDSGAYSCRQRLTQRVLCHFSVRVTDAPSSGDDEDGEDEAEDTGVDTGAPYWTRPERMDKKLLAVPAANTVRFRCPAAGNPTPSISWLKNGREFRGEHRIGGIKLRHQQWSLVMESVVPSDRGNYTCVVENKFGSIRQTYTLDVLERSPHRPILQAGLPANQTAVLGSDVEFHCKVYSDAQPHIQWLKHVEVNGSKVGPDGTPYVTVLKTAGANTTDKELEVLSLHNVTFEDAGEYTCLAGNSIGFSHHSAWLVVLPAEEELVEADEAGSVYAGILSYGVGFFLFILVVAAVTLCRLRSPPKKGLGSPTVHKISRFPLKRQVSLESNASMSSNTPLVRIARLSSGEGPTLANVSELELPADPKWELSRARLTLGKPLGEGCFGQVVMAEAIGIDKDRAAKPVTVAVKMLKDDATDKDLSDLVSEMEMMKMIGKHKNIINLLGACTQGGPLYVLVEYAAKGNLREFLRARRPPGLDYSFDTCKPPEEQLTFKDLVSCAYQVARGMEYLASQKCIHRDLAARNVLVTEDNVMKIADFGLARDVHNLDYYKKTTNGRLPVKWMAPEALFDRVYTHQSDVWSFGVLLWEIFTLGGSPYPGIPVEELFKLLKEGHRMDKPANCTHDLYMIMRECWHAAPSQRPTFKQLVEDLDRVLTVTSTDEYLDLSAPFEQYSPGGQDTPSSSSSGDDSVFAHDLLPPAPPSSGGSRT

[10] = biological target: Receptor-type tyrosine-protein kinase FLT3 (Homo sapiens) (UniProt P36888); assay: Residual activity of wild type FLT3 at 10 uM by microplate scintillation counting
[11] = biological target: Vascular endothelial growth factor receptor 3 (Homo sapiens, UniProt P35916); assay: Residual activity of VEGFR3 at 0.1 uM by microplate scintillation counting
[12] = biological target: Serine/threonine-protein kinase B-raf (Homo sapiens) (UniProt P15056); assay: Residual activity of Wild type B-RAF at 1 uM by microplate scintillation counting
[13] = biological target: CDK1/Cyclin A (Homo sapiens) (UniProt P06493+P20248); assay: Residual activity of CDK1/Cyclin A at 10 uM by microplate scintillation counting; type: protein-complex assay
Chain of CDK1/Cyclin A (Homo sapiens) (P06493 whole entry, looked up): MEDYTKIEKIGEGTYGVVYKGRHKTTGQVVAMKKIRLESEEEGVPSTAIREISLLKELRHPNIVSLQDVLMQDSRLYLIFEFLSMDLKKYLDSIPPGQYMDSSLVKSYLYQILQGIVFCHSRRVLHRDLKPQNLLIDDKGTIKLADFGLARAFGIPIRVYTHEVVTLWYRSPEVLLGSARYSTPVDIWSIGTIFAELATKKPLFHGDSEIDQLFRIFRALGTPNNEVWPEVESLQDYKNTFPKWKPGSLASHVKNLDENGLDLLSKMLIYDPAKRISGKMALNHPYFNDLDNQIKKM
Chain of CDK1/Cyclin A (Homo sapiens) (P20248 whole entry, looked up): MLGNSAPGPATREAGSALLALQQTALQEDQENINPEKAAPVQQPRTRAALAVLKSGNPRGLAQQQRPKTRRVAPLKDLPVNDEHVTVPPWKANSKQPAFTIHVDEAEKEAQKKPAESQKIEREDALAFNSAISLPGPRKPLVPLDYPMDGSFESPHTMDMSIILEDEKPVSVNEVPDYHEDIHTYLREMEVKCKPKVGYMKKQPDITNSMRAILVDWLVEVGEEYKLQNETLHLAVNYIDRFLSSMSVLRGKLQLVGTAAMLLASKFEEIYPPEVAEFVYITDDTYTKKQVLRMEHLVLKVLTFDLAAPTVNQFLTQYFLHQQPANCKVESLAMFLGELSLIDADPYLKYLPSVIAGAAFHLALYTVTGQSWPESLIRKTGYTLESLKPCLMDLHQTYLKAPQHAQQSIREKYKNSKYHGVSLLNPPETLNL

[14] = biological target: Tyrosine-protein kinase Lyn (Homo sapiens) (UniProt P07948); assay: Residual activity of LYN at 10 uM by microplate scintillation counting
Chain of Tyrosine-protein kinase Lyn (Homo sapiens) (P07948 2-512 limits assumed): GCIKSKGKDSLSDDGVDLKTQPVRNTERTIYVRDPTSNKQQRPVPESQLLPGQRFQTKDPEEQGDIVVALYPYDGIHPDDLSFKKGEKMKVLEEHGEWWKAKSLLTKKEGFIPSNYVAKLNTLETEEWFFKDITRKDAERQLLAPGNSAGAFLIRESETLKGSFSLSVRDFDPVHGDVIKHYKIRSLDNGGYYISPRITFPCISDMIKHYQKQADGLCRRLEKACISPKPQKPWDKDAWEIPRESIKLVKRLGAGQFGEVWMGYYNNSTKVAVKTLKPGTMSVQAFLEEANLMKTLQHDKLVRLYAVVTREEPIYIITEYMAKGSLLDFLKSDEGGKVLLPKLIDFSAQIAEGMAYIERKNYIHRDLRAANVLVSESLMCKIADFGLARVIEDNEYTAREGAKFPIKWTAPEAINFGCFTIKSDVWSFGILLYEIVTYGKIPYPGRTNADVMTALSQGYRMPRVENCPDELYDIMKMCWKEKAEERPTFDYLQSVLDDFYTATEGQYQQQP

[15] = biological target: Hepatocyte growth factor receptor (Homo sapiens) (UniProt P08581); assay: Residual activity of MET at 10 uM by microplate scintillation counting
[16] = biological target: Protein kinase C eta type (Homo sapiens) (UniProt P24723); assay: Residual activity of PKCeta at 10 uM by microplate scintillation counting
[17] = biological target: Calcium/calmodulin-dependent protein kinase kinase 2 (Homo sapiens) (UniProt Q96RR4); assay: Residual activity of CAMKK2 at 0.1 uM by microplate scintillation counting
Chain of Calcium/calmodulin-dependent protein kinase kinase 2 (Homo sapiens) (Q96RR4 2-588 limits assumed): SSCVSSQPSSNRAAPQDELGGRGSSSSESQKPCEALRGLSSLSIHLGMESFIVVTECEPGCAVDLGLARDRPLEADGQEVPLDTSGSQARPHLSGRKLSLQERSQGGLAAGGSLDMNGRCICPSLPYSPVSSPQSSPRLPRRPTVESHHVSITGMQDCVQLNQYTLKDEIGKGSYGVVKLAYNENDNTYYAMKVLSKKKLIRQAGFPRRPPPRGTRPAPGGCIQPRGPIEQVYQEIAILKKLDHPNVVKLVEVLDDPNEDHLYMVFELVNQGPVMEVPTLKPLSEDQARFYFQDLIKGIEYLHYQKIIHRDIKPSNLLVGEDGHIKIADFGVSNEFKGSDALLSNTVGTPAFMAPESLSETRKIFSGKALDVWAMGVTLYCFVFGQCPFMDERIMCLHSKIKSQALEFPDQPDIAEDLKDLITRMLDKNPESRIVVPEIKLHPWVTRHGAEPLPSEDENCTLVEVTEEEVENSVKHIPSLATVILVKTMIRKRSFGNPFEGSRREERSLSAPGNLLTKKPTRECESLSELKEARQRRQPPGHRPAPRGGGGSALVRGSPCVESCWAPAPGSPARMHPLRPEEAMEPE

[18] = biological target: Serine/threonine-protein kinase SIK2 (Homo sapiens) (UniProt Q9H0K1); assay: Residual activity of SNF1LK2 at 10 uM by microplate scintillation counting
[19] = biological target: Vascular endothelial growth factor receptor 1 (Homo sapiens) (UniProt P17948); assay: Residual activity of VEGFR1 at 10 uM by microplate scintillation counting
Chain of Vascular endothelial growth factor receptor 1 (Homo sapiens) (P17948 whole entry): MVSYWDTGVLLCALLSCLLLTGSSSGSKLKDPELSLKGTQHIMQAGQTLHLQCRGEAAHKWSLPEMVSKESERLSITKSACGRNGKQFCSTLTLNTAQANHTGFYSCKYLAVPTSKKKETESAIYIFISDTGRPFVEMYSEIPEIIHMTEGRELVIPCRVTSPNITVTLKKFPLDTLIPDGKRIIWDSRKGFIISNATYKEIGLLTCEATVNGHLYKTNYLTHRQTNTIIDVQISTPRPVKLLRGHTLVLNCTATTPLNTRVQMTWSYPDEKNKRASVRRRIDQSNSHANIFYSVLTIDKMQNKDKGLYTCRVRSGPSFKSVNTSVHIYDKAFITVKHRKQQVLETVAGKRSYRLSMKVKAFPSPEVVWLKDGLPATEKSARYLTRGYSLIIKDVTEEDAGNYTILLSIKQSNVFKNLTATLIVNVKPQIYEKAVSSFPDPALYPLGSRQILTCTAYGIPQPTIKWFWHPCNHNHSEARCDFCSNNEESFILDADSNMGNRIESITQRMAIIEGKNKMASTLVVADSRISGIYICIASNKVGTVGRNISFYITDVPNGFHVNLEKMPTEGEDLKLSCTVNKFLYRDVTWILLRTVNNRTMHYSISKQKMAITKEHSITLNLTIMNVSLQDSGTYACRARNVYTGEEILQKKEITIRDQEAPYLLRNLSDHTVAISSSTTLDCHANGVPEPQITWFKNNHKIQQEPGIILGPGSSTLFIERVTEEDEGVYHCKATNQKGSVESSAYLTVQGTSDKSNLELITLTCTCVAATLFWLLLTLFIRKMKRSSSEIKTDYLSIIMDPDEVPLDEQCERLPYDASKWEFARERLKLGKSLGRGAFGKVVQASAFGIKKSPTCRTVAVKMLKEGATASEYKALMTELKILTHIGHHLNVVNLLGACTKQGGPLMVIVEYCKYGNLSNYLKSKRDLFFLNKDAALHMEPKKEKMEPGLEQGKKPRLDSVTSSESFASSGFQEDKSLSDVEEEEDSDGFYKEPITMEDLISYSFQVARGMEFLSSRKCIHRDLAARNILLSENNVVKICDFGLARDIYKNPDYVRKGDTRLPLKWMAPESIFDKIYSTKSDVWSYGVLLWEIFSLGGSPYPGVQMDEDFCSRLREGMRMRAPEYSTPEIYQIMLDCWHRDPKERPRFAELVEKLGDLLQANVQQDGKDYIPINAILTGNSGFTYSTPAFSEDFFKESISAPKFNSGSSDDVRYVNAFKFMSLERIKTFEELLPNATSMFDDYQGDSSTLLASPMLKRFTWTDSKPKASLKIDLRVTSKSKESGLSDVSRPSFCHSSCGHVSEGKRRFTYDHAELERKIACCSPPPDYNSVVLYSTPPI

| SMILES | residual activity [1] | residual activity [2] | residual activity [3] | residual activity [4] | residual activity [5] | residual activity [6] | residual activity [7] | residual activity [8] | residual activity [9] | residual activity [10] | residual activity [11] | residual activity [12] | residual activity [13] | residual activity [14] | residual activity [15] | residual activity [16] | residual activity [17] | residual activity [18] | residual activity [19] |
| --- | --- | --- | --- | --- | --- | --- | --- | --- | --- | --- | --- | --- | --- | --- | --- | --- | --- | --- | --- |
| COc1cc2c(Oc3ccc(-c4nc5ccccc5s4)cc3)ncnc2cc1OCCCN1CCN(C)CC1 | 121% | 101% | 85% | 86% | 92% | 87% | 56% | 86% | 171% | 13% | 60% | 79% | 129% | 112% | 12% | 71% | 86% | 141% | 35% |
| COc1cc2c(Oc3ccc(-c4nc5ccccc5s4)cc3F)ncnc2cc1OCCCN1CCN(C)CC1 | 130% | 91% | 96% | 79% | 87% | 101% | 41% | 94% | 46% | 6% | 64% | 83% | 112% | 36% | 8% | 55% | 84% | 241% | 14% |
| COc1cc2c(Oc3ccc(-c4nc5ccccc5s4)cc3)ncnc2cc1OCCCN1CCCC1 | 137% | 94% | 78% | 83% | 84% | 81% | 54% | 86% | 169% | 42% | 57% | 77% | 117% | 142% | 17% | 81% | 91% | 107% | 28% |
